Counter-ions that a name gives are not always drawn. Like-named read-outs stand apart in the source and are kept apart here.
Legend:
Assay type in all cases: biochemical
recombinant PRL-2 = target: T1, recombinant PRL-2 (Homo sapiens, UniProt Q12974); experiment: In vitro phosphatase assay (DiFMUP hydrolysis), PRL-2;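 note: PRL-2 activity read as DiFMUP hydrolysis after 20 min at room temperature with drug, enzyme first pre-reduced at 4 °C for 20 min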
T1 construct: 6xHis (N, cleaved yes); made in house; host or cells: E. coli One Shot BL21 Star
T1 sequence (Q12974 1-167): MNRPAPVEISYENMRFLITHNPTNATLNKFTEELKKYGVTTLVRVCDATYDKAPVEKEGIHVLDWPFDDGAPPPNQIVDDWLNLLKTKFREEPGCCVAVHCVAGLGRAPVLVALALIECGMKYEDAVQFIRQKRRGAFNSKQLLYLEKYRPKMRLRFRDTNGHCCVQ

recombinant PRL-1 = target: T2, recombinant PRL-1 (Homo sapiens, UniProt Q93096); experiment: In vitro phosphatase assay (DiFMUP hydrolysis), PRL-1; note: test concentration or dose not given here
T2 construct: 6xHis (N, cleaved yes); made in house; host or cells: E. coli One Shot BL21 Star
T2 sequence (Q93096 1-173): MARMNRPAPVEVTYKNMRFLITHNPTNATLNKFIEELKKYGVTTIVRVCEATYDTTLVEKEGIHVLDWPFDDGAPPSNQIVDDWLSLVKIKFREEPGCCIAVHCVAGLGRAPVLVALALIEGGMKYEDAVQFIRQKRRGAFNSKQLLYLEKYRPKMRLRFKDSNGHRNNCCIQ

recombinant PRL-3 = target: T3, recombinant PRL-3 (Homo sapiens, UniProt O75365); experiment: In vitro phosphatase assay (DiFMUP hydrolysis), PRL-3; note: test concentration or dose not given here
T3 construct: 6xHis (N, cleaved yes); made in house; host or cells: E. coli One Shot BL21 Star
T3 sequence (O75365 whole entry): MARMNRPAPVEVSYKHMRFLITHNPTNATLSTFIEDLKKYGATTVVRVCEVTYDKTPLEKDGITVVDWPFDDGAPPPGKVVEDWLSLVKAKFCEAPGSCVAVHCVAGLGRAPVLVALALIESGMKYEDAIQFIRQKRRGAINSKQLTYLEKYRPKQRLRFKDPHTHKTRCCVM

[1] = FDA-approved drug screen, activity compared to DMSO

| Compound | % Phosphatase Activity (compared to DMSO) PRL-2 (recombinant PRL-2; [1]) | % Phosphatase Activity (compared to DMSO) PRL-1 (recombinant PRL-1; [1]) | % Phosphatase Activity (compared to DMSO) PRL-3 (recombinant PRL-3; [1]) | % Phosphatase Activity (compared to DMSO) PRL-2 (recombinant PRL-2) | % Phosphatase Activity (compared to DMSO) PRL-1 (recombinant PRL-1) | % Phosphatase Activity (compared to DMSO) PRL-3 (recombinant PRL-3) |
| --- | --- | --- | --- | --- | --- | --- |
| CC(=O)OCC(COC(C)=O)OC(C)=O [Triacetin] | 96% | 93% | 85% | – | – | – |
| CC1(C)O[C@@H]2C[C@H]3[C@@H]4CCC5=CC(=O)C=C[C@]5(C)[C@@]4(F)[C@@H](O)C[C@]3(C)[C@]2(C(=O)CO)O1 [Triamcinolone Acetonide] | 95% | 99% | 78% | – | – | – |
| C[C@]12C=CC(=O)C=C1CC[C@H]1[C@@H]3C[C@@H](O)[C@](O)(C(=O)CO)[C@@]3(C)C[C@H](O)[C@@]12F [Triamcinolone] | 97% | 91% | 81% | – | – | – |
| Nc1nc(N)c2nc(-c3ccccc3)c(N)nc2n1 [Triamterene] | 6324% | 7090% | 3828% | – | – | – |
| NS(=O)(=O)c1cc2c(cc1Cl)NC(C(Cl)Cl)NS2(=O)=O (stereo not drawn) [Trichlormethiazide] | 93% | 100% | 75% | – | – | – |
| CSc1nc2cc(Cl)c(Oc3cccc(Cl)c3Cl)cc2[nH]1 [Triclabendazole] | 91% | 106% | 70% | – | – | – |
| Oc1cc(Cl)ccc1Oc1ccc(Cl)cc1Cl [Triclosan] | 106% | 100% | 96% | – | – | – |
| O=c1[nH]c(=O)n([C@H]2C[C@H](O)[C@@H](CO)O2)cc1C(F)(F)F [Trifluridine] | 101% | 89% | 91% | – | – | – |
| CC(=O)Oc1cc(C(F)(F)F)ccc1C(=O)O [Triflusal] | 105% | 108% | 78% | – | – | – |
| OC(CCN1CCCCC1)(c1ccccc1)C1CCCCC1 (stereo not drawn) [Trihexyphenidyl hydrochloride] | – | – | – | 98% | 100% | 106% |
| C[C@]12CC[C@H]3[C@@H](CC[C@@]45O[C@@H]4C(O)=C(C#N)C[C@]35C)[C@@H]1CC[C@@H]2O [Trilostane] | 110% | 97% | 88% | – | – | – |
| CCC(COC(=O)c1cc(OC)c(OC)c(OC)c1)(c1ccccc1)N(C)C (stereo not drawn) [Trimebutine] | 106% | 90% | 84% | – | – | – |
| COc1ccc(CN2CCNCC2)c(OC)c1OC [Trimetazidine dihydrochloride] | 93% | 95% | 80% | – | – | – |
| CC(CN(C)C)CN1c2ccccc2CCc2ccccc21 (stereo not drawn) [Trimipramine Maleate] | 97% | 94% | 90% | – | – | – |
| CN(C)CCN(Cc1ccccc1)c1ccccn1 [Tripelennamine HCl] | 119% | 91% | 112% | – | – | – |
| NC(CO)(CO)CO [Trometamol] | – | – | – | 105% | 102% | 82% |
| O=C(O[C@H]1C[C@H]2CC[C@@H](C1)[N+]21CCCC1)C(O)(c1ccccc1)c1ccccc1 [Trospium chloride] | 109% | 109% | 83% | – | – | – |
| COc1cc(C(=O)NC2CCCNC2)cc(OC)c1OC (stereo not drawn) [Troxipide] | 110% | 95% | 79% | – | – | – |
| CC[C@H]1OC(=O)C[C@@H](O)[C@H](C)[C@@H](O[C@@H]2O[C@H](C)[C@@H](O[C@H]3C[C@@](C)(O)[C@@H](O)[C@H](C)O3)[C@H](N(C)C)[C@H]2O)[C@@H](CC=O)C[C@@H](C)C(=O)/C=C/C(C)=C/[C@@H]1CO[C@@H]1O[C@H](C)[C@@H](O)[C@@H](OC)[C@H]1OC.O=C(O)C(O)C(O)C(=O)O [Tylosin tartrate] | 93% | 95% | 81% | – | – | – |
| CC(=O)[C@@]1(O)CC[C@H]2[C@@H]3CCC4=CC(=O)CCC4=C3[C@@H](c3ccc(N(C)C)cc3)C[C@@]21C [Ulipristal] | 92% | 95% | 79% | – | – | – |
| CC(C)Nc1cc(-c2c[nH]c(C(=O)N[C@H](CO)c3cccc(Cl)c3)c2)c(Cl)cn1 [Ulixertinib (BVD-523, VRT752271)] | 90% | 99% | 105% | – | – | – |
| Cn1ncc(Cl)c1-c1cc(C(=O)N[C@H](CN)Cc2ccc(F)c(F)c2)oc1Cl [Uprosertib (GSK2141795)] | 95% | 95% | 103% | – | – | – |
| O=c1cc[nH]c(=O)[nH]1 [Uracil] | 93% | 100% | 69% | – | – | – |
| COc1ccccc1N1CCN(CCCNc2cc(=O)n(C)c(=O)n2C)CC1.Cl [Urapidil HCl] | 97% | 98% | 92% | – | – | – |
| CCOC(N)=O [Urethane] | 100% | 99% | 91% | – | – | – |
| O=c1ccn([C@@H]2O[C@H](CO)[C@@H](O)[C@H]2O)c(=O)[nH]1 [Uridine] | 97% | 86% | 94% | – | – | – |

— publication PMC8119466, “A screen of FDA-approved drugs identifies inhibitors of protein tyrosine phosphatase 4A3 (PTP4A3 or PRL-3)” (Scientific Reports, 2021)
